Experimental data reported in patent US12624044B2, “SMARCA degraders and uses thereof” (Kymera Therapeutics, Inc., priority 2019, dated 2026).

Experiments:
Type in all cases: cell-based
SMARCA2 [1] = molecular target: T1, SMARCA2 (Homo sapiens, UniProt P51531); assay: MSD SMARCA2 degradation in A549 cell line; conditions: 24 h; for Dmax: A549, A549 cells; for DC50: A549 cells, read-out: SMARCA2 MSD A549 degradation 24 h: Average external-Abs DC50
Outline: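 SMARCA2 remaining was measured by MSD electrochemiluminescence on RIPA lysates (anti-SMARCA2 plus SULFO-TAG anti-rabbit). Prior exposure: 24 h of A549 cells to a 10-point, 3-fold dilution series topping at 1000 nM final; Dmax % given as graded codes.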

SMARCA2 [2] = molecular target: T1, SMARCA2; assay: SMARCA2 Western blot MV4-11 degradation; conditions: 24 h; for Dmax: MV4-11, MV4-11 cells, read-out: SMARCA2 WB MV411 degradation 24 h: Average Dmax %; for DC50: MV4-11 cells, read-out: SMARCA2 WB MV411 degradation 24 h: Average external-Abs DC50
Procedure: Cells were seeded into 6-well plates (MV4-11: 4×10^6 cells/well/1 ml) and 1 ml of 2× compound solution was added into the well to make the final concentration and the plates were mixed well and incubated for 24 hours (No cytotoxicity was observed). The cell were collected with media and spun at 3000 rpm for 5 minutes. The supernatant was aspirated and the well and the cells were washed with cold PBS once and combined for centrifugation again; the supernatant aspirated again. 200 ul pre-chilled RIPAlysis buffer (Boston BioProducts BP-115D) with protease/phosphatase inhibitor (Roche 05892791001/Roche 04906837001) was directly added into the tube to lyze the cells for 20 minutes on ice. The cell lysate were collected into EP tubes and spun at 13000 rpm for 20 minutes and 72 ul supernatant was transferred to a fresh EP tube containing 18 ul of 5× loading buffer (Beyotime Bio P0015) to make the loading samples. The samples were heated to 100° C. for 10 minutes and cooled to RT and microcentrifuged. 20 ul of samples were loaded onto SDS-PAGE gel (Novex, WG1402BOX) and the gel was run at 80 V for 20 minutes and 120 V for 1.5 hours. The samples were electrotransfer to a NC membrane using wet-transfer method with 250 mA for 2.5 hours. The membrane was blocked with LICOR blocking buffer (LI-COR, 927-50000) for 1 hour. The membrane was washed three times with TBST (CST #9997S), 5 minutes each. Incubation was performed with primary antibody prepared in blocking buffer with 0.1% Tween-20 (Solarbio, P8220) at 4° C. overnight (Anti-SMARCA2/BRM antibody (ab15597) 1:500; Anti-BRG1 antibody [EPR3912] (ab108318) 1:1000; Rabbit anti-Baf180 antibody [EPR15860] (Abcam, ab196022) 1:1000; mouse anti-beta-Actin (8H10D10) (CST #3700) 1:10000). The membrane was washed three times with TBST, 5 minutes each. Incubation with secondary antibody was performed for 1 hour at RT (anti-rabbit IgG (Licor, 926-32211) 1:5000; anti-mouse IgG (LI-COR, 926-68070) 1:5000). The membrane was washed three times with TBST, 5 minutes each and lastly the LiCOR was read.
The letter codes for the percentage of SMARCA degradation after 24 hours (Dmax %) include: A (>90% degradation), B (>70-90% degradation), C (50-70% degradation), and D (<50% degradation).

SMARCA4 = molecular target: T2, SMARCA4 (Homo sapiens, UniProt P51532); assay: SMARCA4 Western blot MV4-11 degradation; conditions: 24 h; for Dmax: MV4-11, MV4-11 cells, read-out: SMARCA4 WB MV411 degradation 24 h: Average Dmax %; for DC50: MV4-11 cells, read-out: SMARCA4 WB MV411 degradation 24 h: Average external-Abs DC50
T2 construct: SMARCA2 and SMARCA4 protein degradation in MV4-11 cells; endogenous in cells; host or cells: MV4-11
Outline: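 MV4-11 cells treated with compound for 24 h, lysed in RIPA with protease/phosphatase inhibitors, and SMARCA2 and SMARCA4 (BRG1) levels assessed by Western blot with β-actin loading control and LI-COR fluorescent read-out. Maximal degradation (Dmax %) after 24 h binned into letter codes.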

T2 sequence (P51532 whole entry): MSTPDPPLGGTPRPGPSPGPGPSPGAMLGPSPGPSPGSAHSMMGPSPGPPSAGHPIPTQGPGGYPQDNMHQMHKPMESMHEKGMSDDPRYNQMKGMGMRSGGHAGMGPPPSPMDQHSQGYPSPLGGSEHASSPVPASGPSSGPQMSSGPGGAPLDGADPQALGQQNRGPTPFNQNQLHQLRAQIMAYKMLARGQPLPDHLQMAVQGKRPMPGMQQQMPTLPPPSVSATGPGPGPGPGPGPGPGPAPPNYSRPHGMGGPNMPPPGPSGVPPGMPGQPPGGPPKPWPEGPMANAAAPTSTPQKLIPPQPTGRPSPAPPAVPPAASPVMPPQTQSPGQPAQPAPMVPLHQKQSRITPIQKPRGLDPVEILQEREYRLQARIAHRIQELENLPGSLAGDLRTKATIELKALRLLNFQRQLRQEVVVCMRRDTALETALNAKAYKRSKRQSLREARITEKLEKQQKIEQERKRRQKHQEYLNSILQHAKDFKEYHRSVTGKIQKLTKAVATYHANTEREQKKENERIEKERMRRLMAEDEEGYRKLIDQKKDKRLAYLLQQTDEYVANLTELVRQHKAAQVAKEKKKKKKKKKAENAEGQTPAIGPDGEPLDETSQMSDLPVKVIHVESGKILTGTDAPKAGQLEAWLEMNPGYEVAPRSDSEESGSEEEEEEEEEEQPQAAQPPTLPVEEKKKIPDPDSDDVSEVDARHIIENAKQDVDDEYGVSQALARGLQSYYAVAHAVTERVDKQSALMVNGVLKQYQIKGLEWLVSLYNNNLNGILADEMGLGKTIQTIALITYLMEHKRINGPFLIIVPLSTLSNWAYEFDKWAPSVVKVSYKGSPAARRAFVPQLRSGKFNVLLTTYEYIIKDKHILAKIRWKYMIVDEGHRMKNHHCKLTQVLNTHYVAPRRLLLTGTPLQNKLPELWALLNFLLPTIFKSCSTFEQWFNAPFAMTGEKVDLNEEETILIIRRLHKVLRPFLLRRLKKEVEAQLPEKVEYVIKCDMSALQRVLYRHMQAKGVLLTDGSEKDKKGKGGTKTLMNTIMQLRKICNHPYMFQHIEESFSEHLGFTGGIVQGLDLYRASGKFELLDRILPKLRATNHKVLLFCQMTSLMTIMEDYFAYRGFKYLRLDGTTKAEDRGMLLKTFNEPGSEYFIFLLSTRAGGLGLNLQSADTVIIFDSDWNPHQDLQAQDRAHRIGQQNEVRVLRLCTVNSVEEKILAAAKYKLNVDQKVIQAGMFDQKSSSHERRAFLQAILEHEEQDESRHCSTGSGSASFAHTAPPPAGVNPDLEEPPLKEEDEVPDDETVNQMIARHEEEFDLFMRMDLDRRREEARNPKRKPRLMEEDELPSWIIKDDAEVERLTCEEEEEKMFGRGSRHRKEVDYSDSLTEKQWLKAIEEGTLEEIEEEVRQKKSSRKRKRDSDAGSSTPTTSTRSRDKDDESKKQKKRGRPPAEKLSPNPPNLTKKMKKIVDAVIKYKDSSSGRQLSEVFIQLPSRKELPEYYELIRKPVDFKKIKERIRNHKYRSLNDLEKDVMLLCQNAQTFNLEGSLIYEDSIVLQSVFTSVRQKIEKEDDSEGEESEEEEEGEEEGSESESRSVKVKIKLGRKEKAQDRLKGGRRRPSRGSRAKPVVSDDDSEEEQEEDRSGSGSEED
T1 sequence (P51531 whole entry): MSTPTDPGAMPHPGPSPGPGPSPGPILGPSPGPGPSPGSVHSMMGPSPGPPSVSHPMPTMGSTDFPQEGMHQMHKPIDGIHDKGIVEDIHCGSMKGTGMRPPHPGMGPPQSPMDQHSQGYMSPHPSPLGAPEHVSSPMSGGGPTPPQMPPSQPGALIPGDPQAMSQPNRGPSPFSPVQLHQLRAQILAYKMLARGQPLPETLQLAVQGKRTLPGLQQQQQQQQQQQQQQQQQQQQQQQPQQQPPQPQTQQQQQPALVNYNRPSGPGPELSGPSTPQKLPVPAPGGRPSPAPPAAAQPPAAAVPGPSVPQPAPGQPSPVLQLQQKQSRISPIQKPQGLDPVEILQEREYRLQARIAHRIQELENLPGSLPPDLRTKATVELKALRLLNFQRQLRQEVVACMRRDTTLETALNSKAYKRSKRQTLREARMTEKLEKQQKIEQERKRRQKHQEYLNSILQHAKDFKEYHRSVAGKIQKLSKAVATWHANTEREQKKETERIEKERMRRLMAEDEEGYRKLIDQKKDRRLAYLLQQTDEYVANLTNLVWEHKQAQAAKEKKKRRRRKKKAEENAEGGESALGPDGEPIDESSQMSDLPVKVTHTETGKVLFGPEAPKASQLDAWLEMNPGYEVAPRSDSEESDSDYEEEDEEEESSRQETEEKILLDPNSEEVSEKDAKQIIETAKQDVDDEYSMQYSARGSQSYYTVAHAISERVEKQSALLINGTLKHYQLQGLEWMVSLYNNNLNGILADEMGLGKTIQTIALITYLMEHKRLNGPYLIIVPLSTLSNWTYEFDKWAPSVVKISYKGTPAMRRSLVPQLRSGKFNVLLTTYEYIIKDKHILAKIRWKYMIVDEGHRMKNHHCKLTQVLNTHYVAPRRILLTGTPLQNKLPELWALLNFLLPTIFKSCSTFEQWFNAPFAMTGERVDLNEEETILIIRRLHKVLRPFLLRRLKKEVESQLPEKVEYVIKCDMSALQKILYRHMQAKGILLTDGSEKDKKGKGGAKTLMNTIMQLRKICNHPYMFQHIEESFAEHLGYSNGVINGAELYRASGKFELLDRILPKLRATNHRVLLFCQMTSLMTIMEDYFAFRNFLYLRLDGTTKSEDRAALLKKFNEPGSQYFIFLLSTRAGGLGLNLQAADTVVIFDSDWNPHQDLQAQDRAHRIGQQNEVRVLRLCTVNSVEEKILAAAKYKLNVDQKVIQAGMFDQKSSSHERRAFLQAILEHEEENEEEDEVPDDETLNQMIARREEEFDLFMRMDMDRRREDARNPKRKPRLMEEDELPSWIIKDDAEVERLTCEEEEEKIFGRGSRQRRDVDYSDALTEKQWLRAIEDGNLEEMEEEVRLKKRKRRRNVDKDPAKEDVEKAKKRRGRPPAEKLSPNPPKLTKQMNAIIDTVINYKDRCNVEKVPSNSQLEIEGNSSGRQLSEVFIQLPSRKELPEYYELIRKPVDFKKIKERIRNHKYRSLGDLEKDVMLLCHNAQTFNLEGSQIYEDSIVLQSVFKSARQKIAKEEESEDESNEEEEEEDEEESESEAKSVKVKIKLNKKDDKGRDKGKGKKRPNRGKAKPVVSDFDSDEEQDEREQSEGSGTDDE

Molecule Cc1ncsc1-c1ccc(CNC(=O)[C@@H]2C[C@@H](O)CN2C(=O)[C@@H](NC(=O)[C@H]2CC[C@H](c3cnc(N4C5CCC4CN(c4cc(-c6ccccc6O)nnc4N)C5)nc3C)CC2)C(C)(C)C)cc1 [I-412] has a Dmax (SMARCA2 [1]) greater than 90%, a DC50 (SMARCA2 [1]) of less than 100 nM and a Dmax (SMARCA2 [2]) greater than 90%. For the same molecule, the DC50 (SMARCA2 [2]) was less than 100 nM, the Dmax (SMARCA4) was greater than 90% and the DC50 (SMARCA4) was less than 100 nM.
For Cc1ncsc1-c1ccc(CNC(=O)[C@@H]2C[C@@H](O)CN2C(=O)[C@@H](NC(=O)CN2CCN(C3CCC(c4cnc(N5C6CCC5CN(c5cc(-c7ccccc7O)nnc5N)C6)nc4)CC3)CC2)C(C)(C)C)cc1 (stereo partly drawn) [I-354, (2S,4R)-1-((2S)-2-(2-(4-(4-(2-(3-(3-amino-6-(2-hydroxyphenyl)pyridazin-4-yl)-3,8-diazabicyclo[3.2.1]octan-8-yl)pyrimidin-5-yl)cyclohexyl)piperazin-1-yl)acetamido)-3,3-dimethylbutanoyl)-4-hydroxy-N-(4-(4-methylthiazol-5-yl)benzyl)pyrrolidine-2-carboxamide], the Dmax (SMARCA2 [1]) was greater than 90%, the DC50 (SMARCA2 [1]) was less than 100 nM and the Dmax (SMARCA2 [2]) was greater than 90%. It also gave a DC50 (SMARCA2 [2]) of less than 100 nM, a Dmax (SMARCA4) greater than 90% and a DC50 (SMARCA4) of less than 100 nM.
Molecule Cc1ncsc1-c1ccc([C@H](C)NC(=O)[C@@H]2C[C@@H](O)CN2C(=O)[C@@H](NC(=O)[C@H]2CC[C@H](c3cnc(N4C5CCC4CN(c4cc(-c6ccccc6O)nnc4N)C5)nc3)CC2)C(C)(C)C)cc1 [I-438] has a Dmax (SMARCA2 [1]) greater than 90%, a DC50 (SMARCA2 [1]) of less than 100 nM and a Dmax (SMARCA2 [2]) greater than 90%. It also gave a DC50 (SMARCA2 [2]) of less than 100 nM, a Dmax (SMARCA4) greater than 90% and a DC50 (SMARCA4) of less than 100 nM.
Work on Cc1ncsc1-c1ccc(CNC(=O)[C@@H]2C[C@@H](O)CN2C(=O)[C@@H](NC(=O)CN2CCN([C@H]3CC[C@H](c4cnc(N5C6CCC5CN(c5cc(-c7ccccc7O)nnc5N)C6)nc4)CC3)CC2)C(C)(C)C)cc1 (single isomer, unassigned) [I-446] yielded a DC50 (SMARCA2 [1]) of less than 100 nM, a DC50 (SMARCA2 [2]) of less than 100 nM and a DC50 (SMARCA4) of less than 100 nM.
Cc1ncsc1-c1ccc(CNC(=O)[C@@H]2C[C@@H](O)CN2C(=O)[C@@H](NC(=O)[C@H]2CC[C@H](c3cnc(N4C5CCC4CN(c4cc(-c6ccccc6O)nnc4N)C5)nc3)CC2)C(C)(C)C)c(C(=O)N(C)C)c1 [I-431] gave a Dmax (SMARCA2 [1]) greater than 90%, a DC50 (SMARCA2 [1]) of less than 100 nM and a Dmax (SMARCA2 [2]) greater than 90%. The DC50 (SMARCA2 [2]) was less than 100 nM, the Dmax (SMARCA4) was greater than 90% and the DC50 (SMARCA4) was less than 100 nM.
Work on CC(C)(C)[C@H](NC(=O)[C@H]1CC2(C1)C[C@H](N1CCC(c3cnc(N4C5CCC4CN(c4cc(-c6ccccc6O)nnc4N)C5)nc3)CC1)C2)C(=O)N1C[C@H](O)C[C@H]1C(=O)NOc1ccc(-c2ccccc2F)cc1 (stereo partly drawn) [I-537, (2S,4R)-1-[(2S)-2-[[2-[4-[2-[3-[3-amino-6-(2-hydroxyphenyl)pyridazin-4-yl]-3,8-diazabicyclo[3.2.1]octan-8-yl]pyrimidin-5-yl]-1-piperidyl]spiro[3.3]heptane-6-carbonyl]amino]-3,3-dimethyl-butanoyl]-N-[4-(2-fluorophenyl)phenoxy]-4-hydroxy-pyrrolidine-2-carboxamide] yielded a DC50 (SMARCA2 [1]) greater than 1000 nM and a DC50 (SMARCA2 [2]) greater than 1000 nM.
Cc1ncsc1-c1ccc(CNC(=O)[C@@H]2C[C@@H](O)CN2C(=O)[C@@H](NC(=O)[C@@H]2CC=C(c3cnc(N4C5CCC4CN(c4cc(-c6ccccc6O)nnc4N)C5)nc3)CC2)C(C)(C)C)cc1 [I-406] gave a Dmax (SMARCA2 [1]) greater than 90%, a DC50 (SMARCA2 [1]) of less than 100 nM and a Dmax (SMARCA2 [2]) greater than 90%. It also gave a DC50 (SMARCA2 [2]) of less than 100 nM, a Dmax (SMARCA4) of 70 to 90% and a DC50 (SMARCA4) of less than 100 nM.
CC(=O)O[C@@H]1C[C@@H](C(=O)NCc2ccc(-c3scnc3C)cc2)N(C(=O)[C@@H](NC(=O)[C@H]2CC[C@H](c3cnc(N4C5CCC4CN(c4cc(-c6ccccc6O)nnc4N)C5)nc3)CC2)C(C)(C)C)C1 [I-408] was tested, and the Dmax (SMARCA2 [1]) was greater than 90%, the DC50 (SMARCA2 [1]) was less than 100 nM and the Dmax (SMARCA2 [2]) was greater than 90%. The DC50 (SMARCA2 [2]) was less than 100 nM, the Dmax (SMARCA4) was greater than 90% and the DC50 (SMARCA4) was less than 100 nM.
